Test results from PMC13040083, “Single-molecule dynamics reveal ATP binding alone powers substrate translocation by an ABC transporter” (Nature Communications, 2026).

Legend:
TmrA^EQB (TmrA^E523QB) = assay: Single-molecule (smFRET) peptide translocation by slow-turnover TmrA^EQB in liposomes; conditions: 10 µM valinomycin, K+ buffer, Mg-ATP 3 mM, peptide 200 µM, 45 °C 5 min; and control at 30 °C
Procedure: For single-molecule experiments, a protein-to-lipid ratio (w/w) of 1:10,000 and an OppA-to-liposome ratio of 0.2 molecules per liposome were used. For ensemble transport assays, a protein-to-lipid ratio (w/w) of 1:20 was applied. Extruded LUVs were destabilized by incubation with 0.3% (v/v) Triton X-100 (TX-100) for 30 min. TmrAB and OppA were then added to the detergent-destabilized liposomes and incubated for 30 min at 8 °C under gentle rotation. Detergent removal was performed gradually using sequential additions of polystyrene Bio-Beads SM-2 (Bio-Rad): two incubations at 40 mg/mL (1 h and overnight), followed by two incubations at 80 mg/mL (1 h each). […]
Single-molecule FRET experiments were conducted using a flow chamber system to immobilize liposomes and transporters in an uptake-competent orientation. […] Laser powers were set to 0.8 mW/cm^2 (532 nm excitation) and 0.9 mW/cm^2 (640 nm excitation), with data recorded in 1-min intervals.
Single-molecule FRET (smFRET) measurements were performed using ALEX, allowing the assignment of detected photons based on both excitation and emission wavelength. […] From these signals, FRET efficiency (E) and stoichiometry (S) were calculated and FRET traces extracted using NanoImager software (ONI Nanoimager Development Build) and analyzed with deepFRET[56]. […] Dynamic smFRET traces were further analyzed via HMM by deepFRET. […]

TmrAB^WT [1] = assay: LC-MS-based peptide transport assay; type: biochemical, Thermus thermophilus; conditions: Mg-ATP 3 mM, ATP regeneration system, 45 °C 45 min, n = 3 technical replicates
Procedure: For single-molecule experiments, a protein-to-lipid ratio (w/w) of 1:10,000 and an OppA-to-liposome ratio of 0.2 molecules per liposome were used. For ensemble transport assays, a protein-to-lipid ratio (w/w) of 1:20 was applied. Extruded LUVs were destabilized by incubation with 0.3% (v/v) Triton X-100 (TX-100) for 30 min. TmrAB and OppA were then added to the detergent-destabilized liposomes and incubated for 30 min at 8 °C under gentle rotation. Detergent removal was performed gradually using sequential additions of polystyrene Bio-Beads SM-2 (Bio-Rad): two incubations at 40 mg/mL (1 h and overnight), followed by two incubations at 80 mg/mL (1 h each). Finally, proteoliposomes were harvested by ultracentrifugation (100,000 × g, 30 min, 4 °C) and resuspended in the appropriate buffer.
Reactions were stopped with ice-cold liposome buffer containing 10 mM EDTA. Samples were ultracentrifuged (450,000 × g, 30 min, 4 °C), and pellets were resuspended in 200 µL of 100 mM Na2CO3 (pH 11.5), followed by a second ultracentrifugation under the same conditions. […] A final ultracentrifugation (450,000 × g, 1.5 h, 4 °C) was performed before LC-MS analysis using a Waters BioAccord system (UNIFY 3.1.0). […] Quantification was based on total ion chromatogram peak areas at the peptide-specific retention times.

TmrAB^WT [2] = assay: Filter plate-based peptide transport assay; type: biochemical, Thermus thermophilus; conditions: C4F 10 µM
TmrAB^WT [3] = assay: Single-liposome transport monitored by flow cytometry; type: biochemical, Thermus thermophilus; conditions: flow cytometry single-liposome assay

## CC(C)[C@@H]1NC(=O)[C@H](C)OC(=O)[C@@H](C(C)C)NC(=O)[C@@H](C(C)C)OC(=O)[C@H](C(C)C)NC(=O)[C@H](C)OC(=O)[C@@H](C(C)C)NC(=O)[C@@H](C(C)C)OC(=O)[C@H](C(C)C)NC(=O)[C@H](C)OC(=O)[C@@H](C(C)C)NC(=O)[C@@H](C(C)C)OC1=O [valinomycin]
TmrA^EQB (TmrA^E523QB)
  effect of dissipating membrane potential on translocation: excluded effects from a transmembrane potential

## GIINTLEEL [9mer peptide]
TmrAB^WT [1]
  ATP-dependent transport, in words: signiﬁcant ATP-dependent transport

## RRYC(Fluorescein)KSTEL [C4F, RRYC^FLKSTEL, fluorescein-labeled peptide RRYC^FLKSTEL]
TmrAB^WT [2]; ATP-EDTA 3 mM
  peptide transport, in words: no transport above ADP-EDTA (3 mM) background
TmrAB^WT [2]; Mg-ATP 3 mM
  peptide transport, in words: robust transport
TmrAB^WT [1]
  ATP-dependent transport, in words: signiﬁcant ATP-dependent transport

B1: Nb9F10: conformation-independent nanobody tethered via PEG11-biotin (antibody, V domains shown)
VH: QLQLVESGGGLVQPGDSLRLSCAVSGSALDYNAIGWFRQAPGKEREGVACISKITGNTAYADCVKGRFTISRDNAKNTVHLQMNSLKPEDTAVYYCATVTAVLLPGRCVPGKYWGQGTPVTVSS
TmrAB^WT [3]
  effect of nanobody binding on TmrAB transport activity: did not alter transport activity
